Values quoted from earlier work in patent publication US8633323B2, “Process for preparing bis(thiohydrazide amides)” (Synta Pharmaceuticals Corp., priority 2008, dated 2014).

How the values were obtained:
[1] = background statement: effective administration has been challenging
[2] = system: stage 1V metastatic melanoma; settings: in combination with Taxol, in relation to patients treated with Taxol alone; patients suffering from stage 1V metastatic melanoma

solubility [1]: low solubility
SMILES: CN(NC(=O)CC(=O)NN(C)C(=S)c1ccccc1)C(=S)c1ccccc1 [N-malonyl-bis(N′-methyl-N′-thiobenzoylhydrazide)]
time to progress [2]: increase the time to progress
